The term EC50 denotes the midpoint of the concentration-response curve.

SMILES strings stand for the structures.

T1 sequence (P13945 whole entry): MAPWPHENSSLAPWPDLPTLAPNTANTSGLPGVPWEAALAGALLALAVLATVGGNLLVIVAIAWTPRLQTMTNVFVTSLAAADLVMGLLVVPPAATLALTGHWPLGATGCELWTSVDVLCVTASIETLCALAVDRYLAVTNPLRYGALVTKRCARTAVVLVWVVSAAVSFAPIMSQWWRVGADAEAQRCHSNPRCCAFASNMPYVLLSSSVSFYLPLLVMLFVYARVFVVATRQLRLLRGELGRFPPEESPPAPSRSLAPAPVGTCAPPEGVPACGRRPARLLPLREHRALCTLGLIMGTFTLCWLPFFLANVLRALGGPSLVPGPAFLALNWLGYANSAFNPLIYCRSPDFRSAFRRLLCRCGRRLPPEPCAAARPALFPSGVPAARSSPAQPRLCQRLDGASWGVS

The assay concerns the target T1, human beta-3-adrenergic receptor (Homo sapiens, UniProt P13945).
T1 construct: Chinese hamster ovary (CHO) cells that stably express full-length human beta-3-adrenergic receptor; expressed in transfected cells
As to the kind of experiment: cAMP production (SPA) in CHO cells stably expressing human beta-3-adrenergic receptor, agonist activity. Format: cell-based. The settings on record: cAMP production in CHO cells expressing human beta-3-adrenergic receptor; compounds binned (≦1 μM or >1 μM); read-out: Beta-3 Agonistic Activity, EC50 values. The method, then:
The cell line is grown in 90% F12 nutrient mixture (HAM), 10% fetal bovine serum, 100 units/ml penicillin G sodium, […] streptomycin sulfate, and 2 mM L-glutamine at 37° C. in 95% air and 5% CO2. The transfected cell line is maintained with G418 (800ug/ml).
To test agonist activity, cells are exposed to test compound and then assayed for cAMP production. […] Test compounds are assayed from 10 μM to 3 nM with 3-fold serial dilutions. The control agonist, isoproterenol (10 mM stock in 1.1 mM ascorbate), is assayed by 3-fold dilution beginning at 1 μM. Following a 30-minute incubation with the test compounds, the buffer/compound mixture is removed. […] The cAMP values are then plotted to ascertain the EC50 of each compound tested.
On the technique in general: cAMP levels reflect the balance of adenylyl cyclase and phosphodiesterase activity.
On to `COC(=O)c1cc(-c2ccc3c(c2)CC[C@H](CNC[C@H](O)COc2ccccc2)O3)cc2c1OCC2` [Example 130], for which the EC50 was no more than 1000 nM.

On to `O=C(O)c1ccc(-c2ccc3c(c2)CC[C@H](CNC[C@H](O)CSc2ccc(C(F)(F)F)cc2)O3)cc1` [Example 181], for which the EC50 is greater than 1000 nM.

As for `O=C(O)CCc1ccc2c(c1)CC[C@H](CNC[C@H](O)COc1ccc(Cl)cc1)O2` [Example 267], the concentration for a half-maximal effect (EC50) was greater than 1000 nM.

Regarding `O=C(O)c1cc(-c2ccc3c(c2)CC[C@H](CNC[C@H](O)COc2ccccc2)O3)cs1` [Example 183], the EC50 was no more than 1000 nM.

On to `O=C(NC1CCCCC1)c1cc(-c2ccc3c(c2)CC[C@H](CNC[C@H](O)COc2ccccc2)O3)ccn1` [Example 96], for which the EC50 was greater than 1000 nM.

Regarding `O=C(O)CCc1ccc2c(c1)CC[C@H](CNC[C@H](O)COc1ccccc1)O2` [Example 263, 3-[(2R)-2-({[(2S)-2-Hydroxy-3-phenoxypropyl]amino}methyl)-3,4-dihydro-2H-chromen-6-yl]propanoic acid], the concentration giving a half-maximal response (EC50) was no more than 1000 nM.

With `O=C(O)c1ccc(-c2ccc3c(c2)CC[C@H](CNC[C@H](O)CSc2ccc(F)cc2)O3)cc1` [Example 176], the EC50 is greater than 1000 nM.

With `CC(C)CNc1cc(-c2ccc3c(c2)CC[C@H](CNC[C@H](O)COc2ccccc2)O3)ccc1C(=O)O` [Example 200], the EC50 was no more than 1000 nM.

Take `Nc1cc(-c2ccc3c(c2)CC[C@H](CNC[C@H](O)COc2ccccc2)O3)ccc1C(=O)O` [Example 198]: the concentration for a half-maximal effect (EC50) was no more than 1000 nM.

On to `NC(=O)c1cc2c(OCC(O)CNC[C@H]3CCc4cc(CCC(=O)O)ccc4O3)cccc2[nH]1` (stereo partly shown) [Example 270], for which the 50% effective concentration (EC50) is greater than 1000 nM.

With `O=C(O)c1ccc(-c2ccc3c(c2)CC[C@H](CNC[C@H](O)COc2cccc4[nH]c5ccccc5c24)O3)cc1` [Example 141, 4-[(2R)-2-({[(2S)-3-(9H-Carbazol-4-yloxy)-2-hydroxypropyl]amino}methyl)-3,4-dihydro-2H-chromen-6-yl]benzoic acid], the EC50 was no more than 1000 nM.

With `O=C(O)c1ccc(-c2ccc3c(c2)CC[C@H](CNC[C@H](O)COc2ccccc2)O3)cc1NC1CCC1` [Example 201], the EC50 was no more than 1000 nM.

In the case of `COc1cc(-c2ccc3c(c2)CCC(CNC[C@H](O)COc2ccccc2)O3)ccc1C(=O)O` (stereo in doubt) [Example 206, 4-[(2S)-2-({[(2S)-2-hydroxy-3-phenoxypropyl]amino}methyl)-3,4-dihydro-2H-chromen-6-yl]-2-methoxybenzoic acid], the EC50 is no more than 1000 nM.

For the compound `COc1ccc(SC[C@@H](O)CNC[C@H]2CCc3cc(-c4ccc(C(=O)O)cc4)ccc3O2)cc1` [Example 179], the half-maximal effective concentration (EC50) was greater than 1000 nM.

Turning to `COC(=O)c1ccc(-c2ccc3c(c2)CC[C@H](CNC[C@H](O)COc2cccc4[nH]c5ccccc5c24)O3)cc1` [Example 102], the EC50 is greater than 1000 nM.

With `CC(C)c1ccccc1SC[C@@H](O)CNC[C@H]1CCc2cc(-c3ccc(C(=O)O)cc3)ccc2O1` [Example 171], the EC50 was no more than 1000 nM.

In the case of `O=C(O)CCc1ccc2c(c1)CC[C@H](CNC[C@H](O)COc1ccc(F)cc1)O2` [Example 268], the concentration for a half-maximal effect (EC50) is no more than 1000 nM.

In the case of `O=C(O)c1ccc(-c2ccc3c(c2)CC[C@H](CNCC(O)COc2ccc(F)cc2)O3)cc1` (stereo partly shown) [Example 232], the 50% effective concentration (EC50) was no more than 1000 nM.

For `O=C(O)c1ccc(-c2ccc3c(c2)CC[C@H](CNC[C@H](O)COc2ccccc2Cl)O3)cc1` [Example 252], the EC50 was no more than 1000 nM.

On to `COCCOc1cc(-c2ccc3c(c2)CC[C@H](CNC[C@H](O)COc2ccccc2)O3)ccc1C(=O)O` [Example 210], for which the 50% effective concentration (EC50) was no more than 1000 nM.

With `CCN(CC)c1cc(-c2ccc3c(c2)CC[C@H](CNC[C@H](O)COc2ccccc2)O3)ccc1C(=O)O` [Example 199], the EC50 was no more than 1000 nM.

With `Cc1cc(C)c(OCC(O)CNC[C@H]2CCc3cc(-c4ccc(C(=O)O)cc4)ccc3O2)c(C)c1` (stereo partly shown) [Example 222], the EC50 was greater than 1000 nM.

Take `CC(C)Oc1cc(-c2ccc3c(c2)CC[C@H](CNC[C@H](O)COc2ccccc2)O3)ccc1C(=O)O` [Example 211]: the EC50 was no more than 1000 nM.

As to `O=C(O)c1ccc(-c2ccc3c(c2)CC[C@H](CNC[C@H](O)COc2ccccc2O)O3)cc1` [Example 164], the concentration giving a half-maximal response (EC50) is no more than 1000 nM.

Take `CCOC(=O)c1sc(-c2ccc3c(c2)CC[C@H](CNC[C@H](O)COc2ccccc2)O3)nc1-c1ccccc1` [Example 136]: the 50% effective concentration (EC50) was greater than 1000 nM.

For the compound `CCOC(=O)c1sc(-c2ccc3c(c2)CC[C@H](CNC[C@H](O)COc2ccccc2)O3)nc1C(C)C` [Example 137], the concentration giving a half-maximal response (EC50) was greater than 1000 nM.

Regarding `O=C(O)CCc1ccc2c(c1)CC[C@H](CNC[C@H](O)COc1ccccc1F)O2` [Example 265, 3-[(2R)-2-({[(2S)-3-(2-Fluorophenoxy)-2-hydroxypropyl]amino}methyl)-3,4-dihydro-2H-chromen-6-yl]propanoic acid], the EC50 is no more than 1000 nM.

Take `O=C(O)CCc1ccc2c(c1)CC[C@H](CNC[C@H](O)COc1ccccc1Cl)O2` [Example 264, 3-[(2R)-2-({[(2S)-3-(2-chlorophenoxy)-2-hydroxypropyl]amino}methyl)-3,4-dihydro-2H-chromen-6-yl]propanoic acid]: the EC50 is no more than 1000 nM.

For the compound `O=C(O)c1ccc(-c2ccc3c(c2)CC[C@H](CNC[C@H](O)COc2cccc(Cl)c2)O3)cc1` [Example 254], the 50% effective concentration (EC50) is no more than 1000 nM.

For the compound `Cc1c(-c2ccc3c(c2)CC[C@H](CNC[C@H](O)COc2ccccc2)O3)c(C(=O)O)nn1C` [Example 184], the EC50 was no more than 1000 nM.

As for `O=C(O)c1nc(-c2ccc3c(c2)CC[C@H](CNC[C@H](O)COc2ccccc2)O3)sc1-c1ccccc1` [Example 188], the concentration for a half-maximal effect (EC50) was no more than 1000 nM.

In the case of `O=C(O)c1nc(-c2ccc3c(c2)CC[C@H](CNC[C@H](O)COc2ccccc2)O3)oc1-c1ccccc1` [Example 187], the half-maximal effective concentration (EC50) was no more than 1000 nM.

Regarding `CCc1ccc(SC[C@@H](O)CNC[C@H]2CCc3cc(-c4ccc(C(=O)O)cc4)ccc3O2)cc1` [Example 170], the EC50 is greater than 1000 nM.

In the case of `O=C(O)CCc1ccc2c(c1)CC[C@H](CNC[C@H](O)COc1cccc(Cl)c1)O2` [Example 266], the concentration for a half-maximal effect (EC50) was greater than 1000 nM.

In the case of `O=C(O)c1ccc2cc(-c3ccc4c(c3)CC[C@H](CNC[C@H](O)COc3ccccc3)O4)ccc2c1` [Example 182], the half-maximal effective concentration (EC50) was no more than 1000 nM.

`O=C(O)c1ccc(-c2ccc3c(c2)CC[C@H](CNC[C@H](O)COc2ccccc2)O3)cc1N1CCCCC1` [Example 202]: the EC50 was no more than 1000 nM.

Take `O=C(O)c1ccc(-c2ccc3c(c2)CCC(CNC[C@H](O)COc2ccccc2)O3)cc1-c1ccccc1` (stereo in doubt) [Example 215, 5-[(2S)-2-({[(2S)-2-hydroxy-3-phenoxypropyl]amino}methyl)-3,4-dihydro-2H-chromen-6-yl]-1,1′-biphenyl-2-carboxylic acid]: the EC50 is no more than 1000 nM.

For `O=C(O)c1ccc(-c2ccc3c(c2)CC[C@H](CNC[C@H](O)COc2ccccc2F)O3)cc1` [Example 253], the EC50 is no more than 1000 nM.

Regarding `O=C(O)c1ccc(-c2ccc3c(c2)CC[C@H](CNCC(O)COc2ccccc2Cl)O3)cc1` (stereo partly shown) [Example 234], the EC50 was no more than 1000 nM.

`CCCCNc1cc(-c2ccc3c(c2)CC[C@H](CNC[C@H](O)COc2ccccc2)O3)ccc1C(=O)O` [Example 195, 2-(butylamino)-4-[(2R)-2-({[(2)-2-hydroxy-3-(phenyloxy)propyl]amino}methyl)-3,4-dihydro-2H-chromen-6-yl]benzoic acid]: the concentration giving a half-maximal response (EC50) was no more than 1000 nM.

The record behind these values is US6699860B2, “Di-substituted aminomethyl-chroman derivative beta-3 adrenoreceptor agonists” (Bayer Pharmaceuticals Corporation, priority 2000, dated 2004).
